We go through 16 compounds from article PMC8159961, “Exploring protein hotspots by optimized fragment pharmacophores” (Nature Communications, 2021).

Structures are written as SMILES. Where “and” joins values, the source holds several entries; their conditions need not be identical. Equal entries are not always repeated. Where two headings read alike, the source gives them in different places.

The target of test [1] is T1, human 5-HT7b receptor (Homo sapiens, UniProt P34969).
T1 construct: expressed in transfected cells
T1 sequence (P34969 1-432): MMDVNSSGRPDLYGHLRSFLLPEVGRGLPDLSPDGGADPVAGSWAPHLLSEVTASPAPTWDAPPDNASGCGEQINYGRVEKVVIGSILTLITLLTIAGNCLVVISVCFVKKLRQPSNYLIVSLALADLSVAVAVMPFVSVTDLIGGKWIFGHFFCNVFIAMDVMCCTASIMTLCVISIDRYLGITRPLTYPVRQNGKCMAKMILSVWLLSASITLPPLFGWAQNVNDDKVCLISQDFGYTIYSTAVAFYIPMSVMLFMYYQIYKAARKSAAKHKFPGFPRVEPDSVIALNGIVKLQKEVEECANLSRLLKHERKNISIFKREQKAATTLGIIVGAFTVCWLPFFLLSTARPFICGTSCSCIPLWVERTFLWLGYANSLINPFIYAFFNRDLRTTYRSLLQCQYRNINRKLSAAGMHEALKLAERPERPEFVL
Nature of the test: GPCR radioligand binding assay, [3H]-5-CT displacement, HEK293 membranes.

Test [2] has as its target T2, human 5-HT1A receptor (Homo sapiens, UniProt P08908).
T2 construct: expressed in transfected cells
T2 sequence (P08908 1-422): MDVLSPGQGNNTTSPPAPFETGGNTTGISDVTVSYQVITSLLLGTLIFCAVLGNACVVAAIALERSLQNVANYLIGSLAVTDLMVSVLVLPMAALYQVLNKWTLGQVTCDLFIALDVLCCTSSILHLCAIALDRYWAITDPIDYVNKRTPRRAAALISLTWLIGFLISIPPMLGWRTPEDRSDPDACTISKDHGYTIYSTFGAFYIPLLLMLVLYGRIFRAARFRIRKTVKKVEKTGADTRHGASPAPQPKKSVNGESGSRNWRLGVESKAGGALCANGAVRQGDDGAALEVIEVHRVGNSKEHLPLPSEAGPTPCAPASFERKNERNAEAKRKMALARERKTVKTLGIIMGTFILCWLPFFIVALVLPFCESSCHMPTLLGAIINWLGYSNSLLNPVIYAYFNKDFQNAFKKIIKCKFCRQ
Nature of the test: GPCR radioligand binding assay, [3H]-8-OH-DPAT displacement, HEK293 membranes.

Test [3] deals with T3, bovine factor Xa (Bos taurus, UniProt P00743).
T3 construct: bovine factor Xa, Chromogenix, 2 nkat/mL; purchased Chromogenix
T3 sequence (P00743 234-492 limits assumed): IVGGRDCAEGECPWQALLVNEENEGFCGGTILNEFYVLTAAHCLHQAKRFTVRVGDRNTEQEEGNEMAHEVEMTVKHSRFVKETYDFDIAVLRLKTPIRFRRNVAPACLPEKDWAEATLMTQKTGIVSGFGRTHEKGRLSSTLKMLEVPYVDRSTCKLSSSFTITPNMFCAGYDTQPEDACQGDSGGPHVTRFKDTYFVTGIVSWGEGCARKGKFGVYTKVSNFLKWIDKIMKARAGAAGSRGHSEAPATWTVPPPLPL
T3 sequence (P00743 41-180 partner limits assumed): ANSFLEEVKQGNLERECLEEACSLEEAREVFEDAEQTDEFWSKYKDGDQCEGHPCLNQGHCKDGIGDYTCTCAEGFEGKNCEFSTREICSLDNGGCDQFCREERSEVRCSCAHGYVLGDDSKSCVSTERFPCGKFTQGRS
Nature of the test: Protease inhibitory assay, chromogenic substrate S-2222. It is filed as biochemical. As to conditions: for vinit: replicate values.

The target in test [4] is T4, human thrombin (Homo sapiens, UniProt P00734).
T4 construct: human thrombin; purchased Sigma-Aldrich
Nature of the test: Protease inhibitory assay, chromogenic substrate S-2238. As to conditions: for vinit: replicate values. It is filed as biochemical.

The target in test [5] is T5, human 5-HT6 receptor (Homo sapiens, UniProt P50406).
T5 construct: expressed in transfected cells
T5 sequence (P50406 whole entry): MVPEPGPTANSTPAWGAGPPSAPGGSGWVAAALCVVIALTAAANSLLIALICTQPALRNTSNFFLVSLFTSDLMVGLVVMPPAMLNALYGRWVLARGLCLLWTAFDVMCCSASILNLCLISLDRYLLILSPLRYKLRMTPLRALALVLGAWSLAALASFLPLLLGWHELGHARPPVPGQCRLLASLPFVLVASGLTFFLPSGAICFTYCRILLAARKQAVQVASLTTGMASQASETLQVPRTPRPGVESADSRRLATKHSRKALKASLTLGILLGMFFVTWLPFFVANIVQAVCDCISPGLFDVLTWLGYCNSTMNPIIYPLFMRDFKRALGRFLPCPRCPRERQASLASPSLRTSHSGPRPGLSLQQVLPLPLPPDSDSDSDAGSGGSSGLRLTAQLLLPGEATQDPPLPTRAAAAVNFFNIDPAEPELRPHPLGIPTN
In words: GPCR radioligand binding assay, [3H]-LSD displacement, HEK293 membranes.

For test [6], the target named is T6, recombinant SETD2 (Homo sapiens, UniProt Q9BYW2).
T6 construct: purchased BPS Bioscience 52060
T6 sequence (Q9BYW2 1418-1714 limits assumed): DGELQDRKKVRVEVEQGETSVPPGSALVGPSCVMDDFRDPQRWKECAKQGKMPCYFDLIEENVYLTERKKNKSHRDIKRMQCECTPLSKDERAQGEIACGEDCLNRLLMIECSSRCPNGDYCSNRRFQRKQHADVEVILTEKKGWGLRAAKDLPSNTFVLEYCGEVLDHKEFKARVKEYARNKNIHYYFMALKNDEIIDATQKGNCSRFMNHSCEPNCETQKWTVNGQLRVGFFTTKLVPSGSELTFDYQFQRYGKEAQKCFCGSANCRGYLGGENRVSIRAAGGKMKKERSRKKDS
Nature of the test: SETD2 Chemiluminescence assay (H3K36 tri-methylation). The format is biochemical. The note with it: for SETD2 signal normalised to positive control and internally to compound: nM], replicates.

Setting [7] is: 10 µM, read-out: 5-HT7 % Inhibition by plate position.
[8] abbreviates: 5-HT7, average of exp_1 and exp_2, read-out: %inh 5-HT7 average.
The mark [9] stands for this setting: 5-HT7, average, values below 0 and above 100% were set as 0 and 100, read-out: %inh 5-HT7 corrected*.
[10] abbreviates: 5-HT7, replicate exp_1, read-out: %inh 5-HT7 exp_1.
The mark [11] stands for this setting: 5-HT7, replicate exp_2, read-out: %inh 5-HT7 exp_2.
[12] abbreviates: 10 µM, read-out: 5-HT1A % Inhibition by plate position.
[13] abbreviates: 5-HT1A, average of exp_1 and exp_2, read-out: %inh 5-HT1A average.
Setting [14] is: 5-HT1A, average, values below 0 and above 100% were set as 0 and 100, read-out: %inh 5-HT1A corrected*.
[15] abbreviates: 5-HT1A, replicate exp_1, read-out: %inh 5-HT1A exp_1.
Where [16] appears, read: 5-HT1A, replicate exp_2, read-out: %inh 5-HT1A exp_2.
The mark [17] stands for this setting: 10 µM, read-out: 5-HT6 % Inhibition by plate position.
The mark [18] stands for this setting: 5-HT6, average of exp_1 and exp_2, read-out: %inh 5-HT6 average.
Where [19] appears, read: 5-HT6, average, values below 0 and above 100% were set as 0 and 100, read-out: %inh 5-HT6 corrected*.
The mark [20] stands for this setting: 5-HT6, replicate exp_1, read-out: %inh 5-HT6 exp_1.
Setting [21] is: 5-HT6, replicate exp_2, read-out: %inh 5-HT6 exp_2.
[22] abbreviates: FactorXa primary screening, substrate 100 µM, cmpd conc 200 µM.
The mark [23] stands for this setting: Thrombin primary screening, substrate 40 µM, cmpd conc 500 µM.
The mark [24] stands for this setting: FactorXa Ki determination, substrate 100 µM, cmpd conc 200 µM.
Where [25] appears, read: FactorXa Ki determination, substrate 200 µM, cmpd conc 200 µM.
Setting [26] is: FactorXa, substrate 100 µM, cmpd conc 200 µM, one of two values averaged in Supplementary Data 1, read-out: Ki.
The mark [27] stands for this setting: FactorXa, substrate 200 µM, cmpd conc 200 µM, one of two values averaged in Supplementary Data 1, read-out: Ki.
The mark [28] stands for this setting: Thrombin Ki determination, substrate 20 µM, cmpd conc 200 µM.
[29] abbreviates: Thrombin Ki determination, substrate 40 µM, cmpd conc 200 µM.

As for `CC(=O)c1sc(-c2ccc(O)cc2)nc1C` [E1], the inhibition at 10 µM in test [1] (setting [7]) came out at 43%; in test [1] (setting [8]) it was 43%; in test [1] (setting [9]) it was 43%; in test [1] (setting [10]) it was 36%; in test [1] (setting [11]), 50%; in test [2] (setting [12]), 0%. The inhibition at 10 µM in test [2] (setting [13]) is -8.44%; in test [2] (setting [14]) it was 0%; in test [2] (setting [15]), 1.63%; in test [2] (setting [16]), -19%; in test [5] (setting [17]), 65%; in test [5] (setting [18]), 65%. Further, the inhibition at 10 µM in test [5] (setting [19]) was 65%; in test [5] (setting [20]), 71%; in test [5] (setting [21]), 58%. Moreover, the Ki came out at 734 µM in test [3] and 229 µM in test [4] (plate layout, label = plate position, Cheng-Prusoff, Km 2.6 µM, read-out: Thrombin Ki).
For `CS(=O)(=O)Nc1ccc(C(=O)O)cc1` [SX084], the inhibition at 10 µM in test [1] (setting [7]) is 9%; in test [1] (setting [8]), 9%; in test [1] (setting [9]) it was 9%; in test [1] (setting [10]), 5.33%; in test [1] (setting [11]), 13%; in test [2] (setting [12]), 9%. For the same compound, the inhibition at 10 µM in test [2] (setting [13]) came to 9%; in test [2] (setting [14]), 9%; in test [2] (setting [15]), 9%; in test [2] (setting [16]), 9%; in test [5] (setting [17]), 38%; in test [5] (setting [18]), 38%. Besides, the inhibition at 10 µM in test [5] (setting [19]), in test [5] (setting [20]) and in test [5] (setting [21]) was 38% each time. Also, the IC50 in test [6] (chemiluminescence-based enzymatic assay) was determined as 500 µM. The “SETD2 signal normalised to positive control and internally to compound” value was 1.05 and 0.84 in test [6] (fragment concentration 4.7 [log); 0.76 and 0.6 in test [6] (fragment concentration 5 [log); 0.62 and 0.74 in test [6] (fragment concentration 5.3 [log); 0.8 and 0.95 in test [6] (fragment concentration 5.6 [log); 0.66 and 0.73 in test [6] (fragment concentration 5.9 [log).
Regarding `O=c1ccc2c([nH]1)CCCC2` [SX-C5], in test [3] (setting [22]), the “V0 / Vi” value worked out at 1.05; the vinit was 16.714 and 16. In test [4] (setting [23]), the “V0 / Vi” value was 1.00; the vinit is 30.182 and 29.673.
On to `COc1ccc(CN2CCNCC2)cc1F` [SX-D11], for which, in test [3] (setting [22]), the “V0 / Vi” value was found to be 0.84; the vinit was 17.75 and 16.65. In addition, in test [4] (setting [23]), the “V0 / Vi” value is given as 0.91; the vinit is 34.582 and 34.364.
`CC1(C)OC(=O)c2cc(Br)c(O)cc2O1` [SX-C6]: in test [3] (setting [22]), the “V0 / Vi” value was 1.03; the vinit is 16.857 and 16.429. In test [4] (setting [23]), the “V0 / Vi” value was 1.14; the vinit was 27.418 and 25.091.
Consider `c1ccc2c(N3CCNCC3)ccnc2c1` [SX-C4], for which the “V0 / Vi” value was determined as 1.03 in test [3] (setting [22]) and 1.01 in test [4] (setting [23]). Further, the vinit is 16.357 and 17 in test [3] (setting [22]); 30.291 and 29.018 in test [4] (setting [23]).
As to `O=C1NC(=O)/C(=C\c2cccs2)N1` [SX-H12], the “vinit, avrg.” value in test [3] (setting [24]) is recorded as 13.665; in test [3] (setting [25]), 27.296. Also, the vinit in test [3] (setting [24]) was 13.174 and 12.668 and 15.15; in test [3] (setting [25]), 25.633 and 28.073 and 28.18; in test [3] (setting [22]) it was 12.7 and 12.5; in test [4] (setting [23]), 29.929 and 26.071. The “V0 / Vi” value in test [3] (setting [25]) is listed as 1.24; in test [3] (setting [22]), 1.27; in test [4] (setting [23]), 1.13. Moreover, the Ki worked out at 552 µM in test [3] (setting [26]) and 380 µM in test [3] (setting [27]).
In the case of `c1cnc2cccnc2c1` [SX-A2], the “V0 / Vi” value in test [3] (setting [22]) was determined as 1.03; in test [4] (setting [28]), 1.14; in test [4] (setting [29]) it was 1.07; in test [4] (setting [23]), 1.13. The vinit in test [3] (setting [22]) is 17.164 and 16.836; in test [4] (setting [28]), 23.633 and 22.973 and 22.97; in test [4] (setting [29]), 33.054 and 31.27 and 30.03; in test [4] (setting [23]), 26.327 and 25.6. Moreover, the entries for the “vinit, avrg.” value in test [4] (setting [28]) and in test [4] (setting [29]) were 23.193 and 31.452, respectively. Moreover, the Ki in test [4] (Thrombin, substrate 20 µM, cmpd conc 200 µM, one of two values averaged in Supplementary Data 1, read-out: Ki) is 160 µM; in test [4] (Thrombin, substrate 40 µM, cmpd conc 200 µM, one of two values averaged in Supplementary Data 1, read-out: Ki) it was 166 µM.
On to `COc1ccc(C2=CCNCC2)cc1` [SX-G1], for which, in test [3] (setting [22]), the “V0 / Vi” value is recorded as 0.93; the vinit was 19.4 and 17.2. In addition, in test [4] (setting [23]), the “V0 / Vi” value amounted to 1.03; the vinit is 31.055 and 32.691.
Consider `Cc1nccn1Cc1cccc(C#N)c1` [SX-F8], for which the “V0 / Vi” value came out at 0.98 in test [3] (setting [22]) and 0.91 in test [4] (setting [23]). Also, the vinit was 18.582 and 18 in test [3] (setting [22]); 34 and 33.891 in test [4] (setting [23]).
As for `O=C1CCN(c2ccccn2)CC1` [SX-G8], in test [3] (setting [22]), the “V0 / Vi” value stood at 0.97; the vinit was 18.3 and 16.6. In test [4] (setting [23]), the “V0 / Vi” value is on record as 0.99 and the vinit is 33.236.
Consider `c1ccc2[nH]ccc2c1` [SX-A4], for which, in test [3] (setting [22]), the “V0 / Vi” value was found to be 1.05; the vinit is 15.929 and 16.714. Also, in test [4] (setting [23]), the “V0 / Vi” value came out at 0.97; the vinit is 31.418 and 30.036.
In the case of `CCCN1C(=O)CC(=O)NC1=S` [SX-D5], in test [3] (setting [22]), the “V0 / Vi” value is 1.06; the vinit was 16.429 and 16.071. In addition, in test [4] (setting [23]), the “V0 / Vi” value is listed as 1.13; the vinit was 26.909 and 25.673.
Take `C1=C[C@H]2O[C@@H]1c1ccccc12` [SX-C11]: in test [3] (setting [22]), the “V0 / Vi” value is recorded as 0.94; the vinit was 15.415 and 15.185. Besides, in test [4] (setting [23]), the “V0 / Vi” value was 0.96; the vinit is 33.564 and 31.964.
As for `Cc1cc2ccccc2nc1N` [SX-A1], the “V0 / Vi” value stood at 1.84 in test [3] (setting [24]), 1.59 in test [3] (setting [25]), 1.83 in test [3] (setting [22]) and 0.95 in test [4] (setting [23]). Moreover, the “vinit, avrg.” value in test [3] (setting [24]) is listed as 8.852. In addition, the vinit was 8.688 and 8.852 and 9.02 in test [3] (setting [24]); 22.63 and 23.206 and 22.86 in test [3] (setting [25]); 9.345 and 9.782 in test [3] (setting [22]); 30.291 and 31.236 in test [4] (setting [23]). Further, the Ki amounted to 148 µM in test [3] (setting [26]) and 152 µM in test [3] (setting [27]).
On to `CCn1cnc2ccccc21` [SX-D4], for which, in test [3] (setting [22]), the “V0 / Vi” value is listed as 1.03; the vinit was 16.929 and 16.571. Further, in test [4] (setting [23]), the “V0 / Vi” value came out at 0.98 and the vinit was determined as 30.291.

A word on the Ki: it is the equilibrium dissociation constant of an inhibitor or competing ligand from its target. As usually defined, the IC50 is the concentration that gives 50% inhibition.
